A value given as a limit tells only on which side of the number the result lay.

What is called melting point is the temperature of the solid-liquid transition.

In turn, `CC1CCN(CCCC(=O)c2ccc3oc4ccc(C(=O)CCCN5CCC(C)CC5)cc4c3c2)CC1` had a melting point of 72 to 73 °C. Regarding `O=C(CN1CC(S(=O)Cc2ccc(C(=O)O)cc2)C1=O)NCCCCCCc1ccc(Cl)cc1` (stereo not given), the melting point is 195 to 197 °C. Turning to `COc1ccc(Nc2ncccc2NS(=O)(=O)c2ccc(OC)cc2)cc1`, the melting point lay in the range of 145 to 147 °C. Regarding `C=CCOC(=O)c1c(C)nc2c(c1N)c1ccccc1n2C`, the melting point was 94 °C.

`O=C(O)c1cccn1Cc1ccco1` registered a melting point of 117 to 118 °C. With `C[C@]1(COc2ccc(N3CCC(CCOCc4ccc(OC(F)(F)F)cc4)CC3)cc2)Cn2cc([N+](=O)[O-])nc2O1`, the melting point is 205 to 207 °C.

`CC(NC(C)CN(CC(C)NC(C)=C1C(=O)CC(C)(C)CC1=O)C(=O)/C=C\C(=O)O)=C1C(=O)CC(C)(C)CC1=O` (stereo not given): the melting point fell in the range of 68 to 70 °C. Take `CCCNC(=O)C(C#N)(CC)c1ccccc1` (stereo not given): the melting point lay in the range of 55 to 56 °C. In turn, `COC(=S)NCc1cn(-c2cc(F)c(N3CCC(=O)CC3)c(F)c2)nn1` came in with a melting point of 175 to 176 °C. Next, `OCc1cc2cc(-c3ccccc3)ccc2o1`: 134 to 135 °C. `COc1ccc(Cl)cc1C(=O)NCCc1ccc(C(C)=CCC(=O)O)cc1` gave a melting point of 180 to 183 °C. In turn, `CCOC(=O)C(Cc1c[nH]c2c(C(=O)c3ccc(Cl)cc3)cccc12)C(=O)OCC` registered a melting point of 197 to 201 °C. Consider `c1ccc(Sc2sc(-c3ccccc3)cc2-c2ccccc2)cc1`, for which the melting point fell in the range of 96 to 97 °C.

`NC(=O)c1nc(-c2cccc(O)c2)nc2c1[nH]c(=O)n2-c1cccc2[nH]ccc12`: the melting point is greater than 260 °C.

With `O=C(O)C(=O)c1csc2ccccc12`, the melting point was in the range of 92 to 93 °C.

`CCCOC(=O)C(C)NC(=O)C(CC(=O)O)NC(=O)C(C)N` (stereo not given): the melting point was in the range of 223 to 225 °C. In the case of `O=C(Nc1cccnc1)N1CCN(c2nccc(-c3cccc(F)c3)n2)CC1`, the melting point fell in the range of 210 to 211 °C. For the compound `CCCCOC(=O)C(N)C=CCP(=O)(O)O` (stereo not given), the melting point fell in the range of 160 to 161 °C. The compound `CC(Oc1ncn(-c2ccc(OC(F)(F)F)cc2)n1)C(=O)O` (stereo not given) came in with a melting point of 200 to 203 °C.

Regarding `Cc1ccc([C@@H]2C[C@H]3C=C(c4n[nH]c(-c5ccc(F)cc5)c4-c4ccncc4)CCN3C2)cc1`, the melting point lay in the range of 222 to 225 °C. Next, `c1cc(Nc2nncc3ccccc23)cc(-n2ccnc2)c1`: 135 to 137 °C. The compound `Cc1nnc(-c2cc3c(OC[C@@H](O)CN4CCC(c5ccc6ccccc6c5)CC4)cccc3[nH]2)o1` gave a melting point of 215 to 217 °C.

Take `CCCOc1ccccc1-c1nc2cc3ncn(CC(C)C4CCCCC4)c3cc2c(=O)[nH]1` (stereo not given): the melting point lay in the range of 178 to 180 °C.

On to `CC(C)(C)NC(=O)[C@@H]1CCCN1C(=O)[C@@H](O)[C@H](Cc1ccccc1)NC(=O)[C@H](CC(N)=O)NC(=O)COC1CCC(NC(=O)OCc2ccccc2)CC1` (stereo not given in full), for which the melting point lay in the range of 109 to 114 °C. Turning to `CC(C)COc1ccc2c(n1)CC(c1ccccc1)CC2=O` (stereo not given), the melting point was in the range of 157 to 158 °C.

Compound `COc1ccc(-c2cc(=S)ss2)cc1` came in with a melting point of 110 to 111 °C. Take `COC(=O)c1cnc(OC)c(N)c1`: the melting point fell in the range of 108 to 109 °C. In the case of `CC1(C)C2CC[C@]1(C)C(=O)C(C(=O)Nc1cc(C(F)(F)F)cc(C(F)(F)F)c1)C2=O` (stereo not given in full), the melting point was 68 to 72 °C. As for `O=C(Nc1n[nH]c2nc(Oc3ccc(F)cc3F)ncc12)OCc1ccccc1`, the melting point is 270 to 272 °C. `CC(=O)C(C(C)=O)=C1NC(=O)N(Cc2ccccc2)C1=O`: the melting point lay within 211 to 212 °C.

Compound `CCCC1C(O)=CC(=O)N1c1ccc(C#N)c(Cl)c1` (stereo not given) had a melting point of 156 to 158 °C. In turn, `CCOC(=O)C(=O)CC(=O)c1cn(Cc2ccc([N+](=O)[O-])cc2)c2ccccc2c1=O` had a melting point of 175 to 176 °C. The compound `N=C(N)NC(=O)c1cn(-c2ccnc3ccccc23)c2ncccc12` yielded a melting point of 164 °C. `Cn1cncc1-c1cccc(Nc2ccc3ccccc3n2)c1` displayed a melting point of 60 to 65 °C. Take `COc1ccc(S(=O)(=O)N2CCc3cccc(-c4ccc(F)nc4)c32)cc1`: the melting point was in the range of 140 to 142 °C.

`CSc1ccc(C(=O)C(=C(N)C(F)(F)F)c2ccc(F)cc2)cc1` registered a melting point of 122 to 124 °C.

`Cc1ccc(C=CC(=O)CCCCCl)cc1` registered a melting point of 79 to 82 °C. The result for `CCOC(=O)C(=NC1CCCCC1)c1cccn1C` reads 35 to 36 °C; that for `COc1ccc(NC(=O)CCl)c(OC)c1`, 90 to 91 °C; that for `COc1cc(C(=O)N2CCC(CCN3CCC(C(=O)c4nc5ccccc5n4CCCC(=O)O)CC3)(c3ccc(Cl)c(Cl)c3)C2)cc(OC)c1OC` (stereo not given), 125 to 140 °C.

`CC1(C)C(=O)Nc2cc(C(=O)Nc3ccccc3)ccc21` showed a melting point of 205 to 206 °C. The compound `O=C(C1CCCCC1CO)N1CCCC1` (stereo not given) gave a melting point of 115 °C. Consider `CC(c1ccc(S(C)(=O)=O)cn1)C(O)(Cn1cncn1)c1ccc(F)cc1F` (stereo not given), for which the melting point lay in the range of 176 to 177 °C. `Cc1c(F)c(Oc2ccc(F)c(F)c2)nc(Oc2cc(C(F)(F)F)nn2C)c1F`: the melting point is 93 °C. `CCCCNS(=O)(=O)CC(O)(CCCC)C(N)C(O)CC1CCCCC1` (stereo not given) came in with a melting point of 164 to 165 °C. Next, `CN1CCN(S(=O)(=O)c2ccccc2NC(=O)N[C@@H](Cc2ccc(NC(=O)c3c(Cl)cncc3Cl)cc2)C(=O)O)CC1`: 189 °C. `CN(C)c1ncc(CN2C(=O)C3(COc4cc5c(cc43)OCO5)c3ccccc32)s1` (stereo not given) had a melting point of 200 to 202 °C. `COc1ccc(CN2C(=O)C(CCO)Oc3ccccc32)cc1` (stereo not given): the melting point lay in the range of 80 to 82 °C. In the case of `O=C(O)CCCCCCCCC1CO1` (stereo not given), the melting point was 48 °C. Next, `CC(Cc1cccnc1)(NC(=O)OC1C2CC3CC(C2)CC1C3)C(=O)NCCc1ccccc1` (stereo not given): 167 to 169 °C. `O=C(Oc1cccc2ccccc12)n1c2c(c(=O)n(C3CCCCO3)c1=O)CCC2` (stereo not given) came in with a melting point of 160 °C. Next, `Cc1nc(N2CCN(Cc3ccc(C(F)(F)F)cc3)C2=O)sc1CO`: 153 to 154 °C; `CCc1nn(-c2c(Cl)cc(Cl)cc2Cl)c(N)c1C(N)=O`: 186 to 188 °C; `CC(=O)Oc1ccc2c(c1)CCC1C3CCC(=O)C3(C)CC(=O)C21O` (stereo not given): 247 to 248 °C. Consider `Cc1nc2cc3c(cc2s1)C1(CO3)C(=O)Nc2ccccc21` (stereo not given), for which the melting point was greater than 250 °C. `CSc1sc(-c2cncs2)c2c1C(=O)CC(C)(C)C2` showed a melting point of 138 to 140 °C. The result for `Cc1cccc(OCC2=NCCN2C(=O)Oc2cccc(C)c2C)c1C` reads 126 to 127 °C; that for `COC(=O)N1CCN(c2n[nH]c(-c3ccc(Cl)cc3)c2-c2ccncc2)CC1`, 264 to 265 °C; that for `CC(=O)Oc1ccc(C(=O)O)cc1I`, 173 to 174 °C. `CCc1[nH]n(C2CCCC2)c2nc(-c3ccccc3OCC(=O)O)nc(=O)c1-2`: the melting point fell in the range of 208 to 209 °C. Next, `Nc1ccc(C(=O)N2Cc3ccccc3Cc3ccccc32)c(Cl)c1`: 158 to 161 °C. `CCCCCCCCCCCCCCCCCC(=O)SC1CCN(C(C(=O)OC)c2ccccc2F)CC1` (stereo not given) showed a melting point of 50 to 52 °C. The result for `Cc1cccc(-c2[nH]c(C(C)C)nc2-c2cccc(-c3cccnc3)c2)n1` reads 74 to 77 °C; that for `N#CC(C#N)=C1N(CCCN2CCCCC2)CCN1CCN1CCCC1`, 63 to 64 °C.

Consider `O=C(O)Cc1cccc(C(=O)c2cccs2)c1Cl`, for which the melting point worked out at 112 °C.

Take `Nc1c(Cl)cc(C(=O)C=Cc2ccncc2)c2c1OCCO2`: the melting point lay within 209 to 211 °C. In turn, `COC(=O)c1ccc(C(O)C#Cc2cc(-c3cccs3)c(OC)cc2OC)cc1` (stereo not given) registered a melting point of 128 to 130 °C. Compound `O=C1Nc2cccc(-c3cncnc3)c2C12COc1cc3c(cc12)OCO3` (stereo not given) yielded a melting point of 185 to 187 °C. Regarding `c1ccc(OCC2CO2)c(Cc2cccc3[nH]ccc23)c1` (stereo not given), the melting point is 78 °C. For the compound `Nc1cc(C(F)(F)F)nc(C(=O)O)c1Cl`, the melting point fell in the range of 131 to 133 °C.

On to `O=C(/C=C/c1ccn(S(=O)(=O)c2ccc(-n3cccn3)cc2)c1)NO`, for which the melting point is 161 to 167 °C. `COc1cc(CO)c(OC)c(C)c1C` gave a melting point of 71 to 72 °C. The result for `OCc1ccc2[nH]cc(CCCCN3CC=C(c4ccccc4)CC3)c2c1` reads 162 to 164 °C; that for `COc1cc(OC)cc(C2CC=CCC2=O)c1` (stereo not given), 60 to 62 °C. In turn, `COc1ccc(C=C(C#N)C=O)cc1OC` came in with a melting point of 157 to 158 °C. With `c1ccc(Cc2ccccc2Cc2ccccc2)cc1`, the melting point was 61 to 67 °C. The result for `C#Cc1ccc(=O)oc1` reads 99 to 100 °C. The compound `CCOC(=O)C1=C(C)Nc2nc(N3CCOCC3)nc(N3CCOCC3)c2C1c1cccnc1Cl` (stereo not given) gave a melting point of 185 °C. The result for `O=C(c1ccc(F)cc1)C1CCN(CCn2c(=O)[nH]c3ncccc3c2=O)CC1` reads 60 °C; that for `CCOC(=O)C(C)(C(=O)Nc1cc(Cl)cc(Cl)c1)S(C)=O` (stereo not given), 124 to 127 °C. The compound `COC(=O)c1ccc2c(c1)C=CC(=CCl)CO2` returned a melting point of 72 to 77 °C. `CC(C)(C)OC(=O)NCC(=O)c1ccc(OCc2ccccc2)cc1` came in with a melting point of 75 to 76 °C. Take `Cc1cc(O)ccc1COCCn1ccnn1`: the melting point was in the range of 92 to 93 °C. Next, `Cn1nnnc1-c1ccccc1S(N)(=O)=O`: 176 to 179 °C.

Take `CSc1ccc(-c2n[nH]c(=O)cc2-c2ccc(Cl)cc2)cc1`: the melting point was 202 to 204 °C. Turning to `N#CN(Cc1ccccc1)c1ccccn1`, the melting point was 65 to 66 °C.

The compound `Cn1c(C=NNCCO)cnc1[N+](=O)[O-]` came in with a melting point of 138 to 140 °C. As to `CCc1cc(-n2ccc(=O)cc2)c(S(C)(=O)=O)cc1C(=O)N=C(N)N`, the melting point is 261 to 263 °C. For `O=C(O)CCCC(=O)c1ccc(O)c(O)c1`, the melting point was in the range of 210 to 215 °C. For the compound `O=C(O)CCNC(=O)c1ccc(-c2ccccc2OC2OC(CO)C(O)C(O)C2O)cc1` (stereo not given), the melting point was 101 to 104 °C.

The values are drawn from a melting point compilation (Tetko et al.; mined from patent text by program, amines drawn as free bases though some values may be those of a salt).
